Source: patent publication US7090995B2, “Molecules and methods using same for measuring non-transferrin bound iron” (Yissum Research Development Company of the Hebrew …, priority 2000, dated 2006)

What was measured:
[1] = DCI in serum/plasma of Thalassemia patients undergoing oral L1-chelation therapy; assay type: in vivo, human; conditions: Thalassemia patients (Thailand, Israel), therapeutic oral doses of L1, minutes to hours after administration; FIGS. 6A-B
Description: FIG. 5 is a schematic illustration of another embodiment of the method of the present invention directed at detecting iron mobilized from tissues into plasma by chelators such as L1 (also called deferriprone). In the example depicted, a serum sample was taken from a patient following L1 oral administration. The iron mobilized in vivo into the plasma by L1 is transferred to Fl-DFO in vitro, whereupon Fl-DFO's fluorescence is quenched commensurately with the amount of iron transferred. The basic assay is as depicted in FIG. 2. FIGS. 6A–B are graphs depicting the DCI levels in plasma of thalassemic patients (3 from Israel and 3 from Thailand, FIGS. 6B and A, respectively) treated with therapeutic doses of L1 (per os). Sampled were retrieved minutes to hours following L1 administration. […] When assessed under actual clinical conditions, with serum samples from Thalassemia patients (each patient is represented by a line in the graph) undergoing L1-chelation therapy in Thailand (FIG. 6A) and Israel (FIG. 6B), the methods of the present invention accurately reflected the L1-bound iron in the patient's plasma. DCI was detected in the samples assayed as described hereinabove (Example 2), and DCI values determined from the standard calibration curve (FIG. 4). […]

[2] = Iron binding (quenching of fluorescence) by fluorescein-transferrin preparations with and without oxalate and gallium; conditions: 0.6 μM indicator, 10 mM oxalate and gallium, FIGS. 8A-B
Procedure: FIGS. 8A–B graphically depict the ability of two particular preparations of iron-free-transferrin, essentially Fl-TF (FIG. 8A) and Fl-aTF (FIG. 8B), to detect free iron in the presence and absence of oxalate and Gallium [Ga(III)]. 0.6 μM of each of the indicator molecules were tested under three experimental conditions: with no addition (squares), with 10 mM Na-oxalate (circles) and with 10 mM Na-oxalate and 0.1 mM GaCl3 (triangles), Quenching of fluorescence as a function of iron concentration was measured and presented as % Original Fluorescence.
Preparation of fluorescein-conjugated apo-Transferrin (Fl-aTF) and iron depleted Transferrin (FL-TF)—100 μM 5-(4,6-dichlorotriazinyl) aminofluorescein (DCTAF, Molecular Probes, Eugene, Oreg.) from a freshly prepared 10 mM solution in dimethylsulfoxide was added to a solution containing 8 mg/ml apo-Transferrin (Kamada, Kibbutz Kama, Israel) (100 μM, based on a, MW of 80 kD) in 100 mM NaHCO3, pH 8.4. Following a 30 minute incubation at 37° C. in the dark, 5 mM L-lysine was added from a solution containing 0.5 M L-lysine, pH 8, in order to terminate the coupling reaction. The product Fl-aTF was extensively dialyzed against HBS, divided into aliquots and stored frozen at −20° C. The final preparation yielded a single fluorescent band of approximately 80 kD in polyacrylamide electrophoresis determinations. The fluoroscein concentration in Fl-aTF was determined to be 84 μM by measuring absorbance at 496 nm, using DCTAF as standard solution, giving a ratio of aTf: fluoroscein of 1:0.84.
FL-TF was prepared in an identical manner as FL-aTF, with the difference that iron-saturated human transferrin (from Kamada, Kibbutz Kama, Israel) was used instead of iron-free transferrin for reaction with DCTAF. The FL-TF was rendered iron-free by exhaustive dialysis against 37.5 mM Na-Citrate, pH 5.0, and then the citrate was removed from the preparation by exhaustive dialysis against HBS. […]

Cc1c(O)c(=O)ccn1C [L1]
DCI in patient plasma after L1 administration [1]: increases in DCI

Fl-TF: fluorescein attached to iron-saturated human transferrin, then rendered iron-free; similar to conventional fluoresceinated Transferrin
quenching of fluorescence by iron in the presence of gallium [2]: inhibition of Fl-TF fluorescence quenching by gallium was clearly observed

5-4,6-dichlorotriazinyl aminofluorescein (DCTF)-apo-transferrin [Fl-aTF]
quenching of fluorescence by iron in the presence of gallium ([2]; listed as FL-aTF): strongly quenched by low concentrations of iron in the presence of gallium
quenching of fluorescence by iron in the presence of gallium ([2]; listed as Fl-aTf): not affected by Gallium
